This is an account of results in patent US5492906A, “Derivatives of thieno-triazolo-diazepine and therapeutic compositions containing them” (Societe de Conseils de Recherches et d'Applications …, priority 1989, dated 1996).

One test has as its target benzodiazepine receptors. In words: Inhibition of the binding to benzodiazepine receptors (rat brains). The conditions noted are these: rat brains incubated 1 h 30 at 4° C.; 3H-RO-15-4788 and 3H-RO-5-4864 as tracers; Table I; read-out: BDZ receptors (inhibition of the binding to benzodiazepine receptors). From the text:
2) Inhibition of the binding to benzodiazepine receptors
The interest of the previous experimentation depends on the results obtained in this experimentation: as a compound of the invention has a benzodiazepine like structure, it is important to check whether the specific benzodiazepine activity would not appear at the dose where platelet agregation was inhibited.
Therefore, this experimentation has been conducted according to the method of MOHLER H. and RICHARD J. G. Agonist and antagonist benzodiazepine receptor intereaction in vitro, Nature, vol. 294, 763°-765, 1981.
This experimentation was conducted on rat brains incubated 1 h 30 at 4° C. using ^3 H-RO-15-4788 and ^3 H-RO-5-4864 (NEN) as tracers and […] and RO-5-4864 as reference antagonists.
The results in molecular concentration are reported in the table I, on the right hand column.

Test [1] deals with bronchospasm induced by the PAF. In words: Action on the bronchospasm induced by the PAF in anaesthetized guinea-pigs. Type of test: in vivo, guinea-pig. The note with it: male Hartley guinea-pigs, oral, 1 hour before PAF i.v.; for Percentage of action: change versus controls; for Percentage of bronchoconstriction: controls 79. ± 5.55, dose not given. From the text: 3) Action on the bronchospasm induced by the PAF
The PAF intravenous injection in anaesthetized guinea-pigs induces a bronchoconstriction with a leucopeny and a thrombocytopeny, according to the method described in S. DESQUAND, C. TOUVAY, J. RANDON, V. LAGENTE, B. VILAIN, I. MARIDONNEAU-PARINI, A. ETIENNE, J. LEFORT, P. BRAQUET and B. VARGAFTIG. Interference of BN 52021 (Ginkolide B) with the bronchopulmonary effects of PAF-acether in the guinea-pig. Eur. J. Pharmacol. 127: 83-95, 1986.
Male Hartley guinea-pigs (400-450 g) (Charles River) anaesthetized with urethane (2 g/kg IP), then are thracheotomized and submitted to a forced respiration with a breathing pump:70-80 strokes/mn, 1 ml of air/ 100 g per stroke. A catheter is introduced in the jugular vein for the injections, an other is introduced in the carotic artery for blood takings. The initial resistance is kept constant under the pressure of 10 cm of water in accordance with the Konzett and Rossler method and the air in excess is measured with a transducor for bronchospasm UGO BASILE together with an enregistror GEMINI. The guinea-pigs had received an IV injection of pancuronium (Pavulon) to inhibit their spontaneous respiration.
The compound according to the invention and the reference compound WEB 2086 (see the above cited Boehringer patent) have been prepared as suspension in gummy water and administrated orally 1 hour before the stimulation by the PAF.
The bronchoconstriction is appreciated by the calculation of the percentage of bronchoconstriction [formula] wherein A stands for induced bronchoconstriction in mm and B stands for maximum bronchoconstriction in mm.

Test [2] deals with platelet agregation induced by PAF. In words: Inhibition of platelet agregation induced by PAF. The conditions noted are these: Oryctolagus cuniculus, New Zealand rabbit platelets, agregometer at 57° C., Table I. Type of test: cell-based, New Zealand rabbits. The protocol:
1) Inhibition of platelet agregation induced by PAF
This experimentation was conducted according to the method of R. KINLOUGH. RATHBONE, J. P. CAZENAVE, M. PACKHAM and F. MUSTARD, Lab. Invest. 48, 98, 1980. In this test, New Zealand rabbits were used (male New Zealand rabbits of an average weight of 5 kg).
The determinations are made on a chrono-log Coultronics agregometer, at […] coupled with a graphic recorder; the results of these determinations (in molecular concentration) are reported on the table I on the central column.

Molecules are shown by their SMILES.

`Cc1nnc2n1-c1sc3c(c1C(c1ccccc1Cl)=NC2)CCN(C(=S)NS(=O)(=O)c1ccccc1)C3` [Example 30, 6-(2-chlorophenyl)-9-(phenylsulfonyl)thiocarbamoyl-7,8,9,10-tetrahydro-1-methyl-4H-pyrido[4',3':4,5]thieno[3,2-f]1,2,4-triazolo[4,3-a]1,4-diazepine]: the IC50 on benzodiazepine receptors was 630 nM. Besides, in test [1], the Percentage of action was -52.9% and the Percentage of bronchoconstriction amounted to 37.2%. Moreover, the IC50 in test [2] stood at 11 nM.
As to `Cc1nnc2n1-c1sc3c(c1C(c1ccccc1Cl)=NC2)CCN(C(=S)Nc1ccc(C(C)(C)C)cc1C(C)(C)C)C3` [Example 22, 6-(2-chlorophenyl)-9-(2,4-diterbutyl)phenylthiocarbamoyl-7,8,9,10-tetrahydro-1-methyl-4H-pyrido[4',3':4,5]thieno[3,2-f]1,2,4-triazolo[4,3-a]1,4-diazepine], the IC50 is 630 nM on benzodiazepine receptors and 366 nM in test [2]. Further, in test [1], the Percentage of action was -67.7%. For the same compound, in test [1], the Percentage of bronchoconstriction stood at 25.5%.
Consider `Cc1nnc2n1-c1sc3c(c1C(c1ccccc1Cl)=NC2)CCN(C(=S)NCc1ccco1)C3` [Example 24, 6-(2-chlorophenyl)-9-(2-furfuryl)thiocarbamoyl-7,8,9,10-tetrahydro-1-methyl-4H-pyrido[4',3':4,5]thieno[3,2-f]1,2,4-triazolo[4,3-a]1,4-diazepine], for which the IC50 at benzodiazepine receptors is 650 nM. Moreover, in test [1], the Percentage of action is given as -57.9% and the Percentage of bronchoconstriction was 33.3%. Further, in test [2], the IC50 is 48 nM.
In the case of `Cc1nnc2n1-c1sc3c(c1C(c1ccccc1Cl)=NC2)CCN(C(=S)NCC(C)c1ccccc1)C3` (stereo not drawn) [Example 20, 6-(2-chlorophenyl)-9-(β-methyl)phenethylthiocarbamoyl-7,8,9,10-tetrahydro-1-methyl 4H-pyrido[4',3':4,5]thieno[3,2-f]1,2,4-triazolo[4,3-a]1,4-diazepine], the IC50 on benzodiazepine receptors was 720 nM; in test [2] it was 6.17 nM.
On to `Cc1nnc2n1-c1sc3c(c1C(c1ccccc1Cl)=NC2)CCN(C(=O)NC1CCCCC1)C3` [Example 27, 6-(2-chlorophenyl)-9-cyclohexylcarbamoyl-7,8,9,10-tetrahydro-1-methyl-4H-pyrido[4', 3':4,5]thieno[3,2-f]1,2,4-triazolo[4,3-a]1,4-diazepine], for which the IC50 at benzodiazepine receptors was 2000 nM; in test [2], 45.2 nM.
Turning to `Cc1nnc2n1-c1sc3c(c1C(c1ccccc1Cl)=NC2)CCN(C(=S)Nc1cnc2ccccc2c1)C3` [Example 25, 6-(2-chlorophenyl)-9-(3-quinolyl)thiocarbamoyl-7,8,9,10-tetrahydro-1-methyl-4H-pyrido[4',3':4,5]thieno[3,2-f]1,2,4-triazolo[4,3-a]1,4-diazepine], the IC50 at benzodiazepine receptors was 350 nM; in test [2] it was 182 nM.
With `C=CCNC(=S)N1CCc2c(sc3c2C(c2ccccc2Cl)=NCc2nnc(C)n2-3)C1` [Example 28, 6-(2-chlorophenyl)-9-allylthiocarbamoyl-7,8,9,10-tetrahydro-1-methyl-4H-pyrido[4',3':4,5]thieno[3,2-f]1,2,4-triazolo[4,3-a]1,4-diazepine], the IC50 at benzodiazepine receptors is 140 nM; in test [2], 9.05 nM.
Taken in the same sequence, the figures for `Cc1nnc2n1-c1sc3c(c1C(c1ccccc1Cl)=NC2)CCN(C(=S)Nc1ccccc1C(F)(F)F)C3` [Example 12, 6-(2-chlorophenyl)-9-(2-trifluoromethyl)phenylthiocarbamoyl-7,8,9,10-tetrahydro-1-methyl 4H-pyrido[4',3':4,5]thieno[3,2-f]1,2,4-triazolo[4,3-a]1,4-diazepine] were 3500 nM and 171 nM.
Take `Cc1nnc2n1-c1sc3c(c1C(c1ccccc1Cl)=NC2)CCN(C(=O)NCc1ccccc1)C3` [Example 23, 6-(2-chlorophenyl)-9-benzylcarbamoyl-7,8,9,10-tetrahydro-1-methyl-4H-pyrido[4',3':4,5]thieno[3,2-f]1,2,4-triazolo[4,3-a]1,4-diazepine]: the IC50 on benzodiazepine receptors was 1600 nM; in test [2], 66.8 nM.
With `Cc1nnc2n1-c1sc3c(c1C(c1ccccc1Cl)=NC2)CCN(C(=O)NS(=O)(=O)c1cccnc1)C3` [Example 34, 6-(2-chlorophenyl)-9-(3-pyridylsulfonyl)carbamoyl-7,8,9,10-tetrahydro-1-methyl-4H-pyrido[4',3':4,5]thieno[3,2-f]1,2,4-triazolo[4,3-a]1,4-diazepine], the IC50 came to 40000 nM on benzodiazepine receptors and 100 nM in test [2].
For the compound `COc1ccc(NC(=O)N2CCc3c(sc4c3C(c3ccccc3Cl)=NCc3nnc(C)n3-4)C2)cc1` [Example 6, 6-(2-chlorophenyl)-9-(4-methoxy)phenylcarbamoyl-7,8,9,10-tetrahydro-1-methyl 4H-pyrido[4',3':4,5]thieno[3,2-f]1,2,4-triazolo[4,3-a]1,4-diazepine], the IC50 stood at 77000 nM at benzodiazepine receptors and 127 nM in test [2].
For `Cc1nnc2n1-c1sc(CCC(=O)N3CCOCC3)cc1C(c1ccccc1Cl)=NC2` [WEB 2086, reference compound], in test [1], the Percentage of action is on record as -68.0% and the Percentage of bronchoconstriction is 25.3%.
As to `Cc1nnc2n1-c1sc3c(c1C(c1ccccc1Cl)=NC2)CCN(C(=O)Nc1ccc(F)cc1F)C3` [Example 29, 6-(2-chlorophenyl)-9-(2,4-difluoro)phenylcarbamoyl-7,8,9,10-tetrahydro-1-methyl-4H-pyrido [4',3':4,5]thieno[3,2-f]1,2,4-triazolo[4,3-a]1,4-diazepine], the IC50 on benzodiazepine receptors worked out at 220 nM; in test [2], 58.6 nM.
The corresponding values for `Cc1nnc2n1-c1sc3c(c1C(c1ccccc1Cl)=NC2)CCN(C(=S)Nc1ccc(F)cc1)C3` [Example 16, 6-(2-chlorophenyl)-9-(4-fluoro)phenylthiocarbamoyl-7,8,9,10-tetrahydro-1-methyl 4H-pyrido[4',3':4,5]thieno[3,2-f]1,2,4-triazolo[4,3-a]1,4-diazepine] are 700 nM and 64 nM.
As to `Cc1nnc2n1-c1sc3c(c1C(c1ccccc1Cl)=NC2)CCN(C(=S)NC1CCCCC1)C3` [Example 26, 6-(2-chlorophenyl)-9-cyclohexylthiocarbamoyl-7,8,9,10-tetrahydro-1-methyl-4H-pyrido[4',3':4,5]thieno[3,2-f]1,2,4-triazolo[4,3-a]1,4-diazepine], the IC50 at benzodiazepine receptors was 4100 nM; in test [2], 53.3 nM.
Turning to `COc1cc(NC(=S)N2CCc3c(sc4c3C(c3ccccc3Cl)=NCc3nnc(C)n3-4)C2)cc(OC)c1OC` [Example 9, 6-(2-chlorophenyl)-9-(3,4,5-trimethoxy)phenylthiocarbamoyl-7,8,9,10-tetrahydro-1-methyl 4H-pyrido[4',3':4,5]thieno [3,2-f]1,2,4-triazolo[4,3-a]1,4-diazepine], the IC50 is 4500 nM at benzodiazepine receptors and 38.7 nM in test [2].
Taken in the same sequence, the figures for `Cc1nnc2n1-c1sc3c(c1C(c1ccccc1Cl)=NC2)CCN(C(=S)Nc1ccc(C(C)(C)C)cc1)C3` [Example 11, 6-(2-chlorophenyl)-9-(4-tertbutyl)phenylthiocarbamoyl-4H-pyrido[4',3':4,5]thieno [3,2-f]1,2,4-triazolo[4,3-a]1,4-diazepine] were 1200 nM and 9.44 nM.
Taken in the same sequence, the figures for `Cc1nnc2n1-c1sc3c(c1C(c1ccccc1Cl)=NC2)CCN(C(=S)NC(C)Cc1ccccc1)C3` (stereo not drawn) [Example 19, 6-(2-chlorophenyl)-9-(α-methyl)phenethylthiocarbamoyl-7,8,9,10-tetrahydro-1-methyl 4H-pyrido[4',3':4,5]thieno[3,2-f]1,2,4-triazolo[4,3-a]1,4-diazepine] were 360 nM and 42.5 nM.
